Read-outs that look alike come from different tables or passages of the source.
Legend:
EGFR del19 = EGFR del19 (Homo sapiens (Human), UniProt P00533, DEL746-750); assay: HTRF enzyme assay, EGFR del19; format: biochemical; conditions: recombinant enzyme
Procedure: (§1) The measurement of an activity on wild-type and EGFR mutation enzyme of the compound of the present invention was experimented by utilizing the HTRF system sold by Cisbio, as follow.
(§2) The composition of the assay buffer used in the activity measurement was 50 mM Tris-HCl pH 7.5, 100 mM NaCl, 7.5 mM MgCl2, 3 mM KCl, 0.01% Tween 20, 0.1% BSA, 1 mM DTT. The enzymatic reaction was carried out hereto by using the peptide substrate labeled with ATP of […] concentration and biotin of […] concentration. The analysis of an EGFR activity inhibitory effect of the compound was carried out in accordance with the analysis reaction recipe below.
(§3) Component 1: […] of EGFR wild-type or mutation enzyme
(§4) Component 2: […] of compound solution
(§5) Component 3: […] of peptide labeled with ATP and biotin
(§6) The enzymatic reaction was initiated by mixing Component 1 and Component 2 first, and then, adding component 3. After the reaction for 2 hours at 37° C., […] of a measurement solution consisting of streptavidin-XL665 provided by Cisbio and anti-phosphotyrosine antibody labeled with europium was added to the enzymatic reaction solution and reacted for 1 hour at ambient temperature. […] The measurement values measured at the seven concentrations of the compound were analyzed by using the Prism program (version 5.01, Graphpad Software, Inc.), and IC50 value of the compound was calculated, which is an inhibitory ability indicator.

EGFR del19/T790M = EGFR del19/T790M (Homo sapiens (Human), UniProt P00533, DEL746-750/T790M); assay: HTRF enzyme assay, EGFR del19/T790M; format: biochemical; conditions: recombinant enzyme
Chain of EGFR del19/T790M (P00533 other isoform, or with tags, fused parts or gaps T790M/del 1-668/del 746-750 limits assumed): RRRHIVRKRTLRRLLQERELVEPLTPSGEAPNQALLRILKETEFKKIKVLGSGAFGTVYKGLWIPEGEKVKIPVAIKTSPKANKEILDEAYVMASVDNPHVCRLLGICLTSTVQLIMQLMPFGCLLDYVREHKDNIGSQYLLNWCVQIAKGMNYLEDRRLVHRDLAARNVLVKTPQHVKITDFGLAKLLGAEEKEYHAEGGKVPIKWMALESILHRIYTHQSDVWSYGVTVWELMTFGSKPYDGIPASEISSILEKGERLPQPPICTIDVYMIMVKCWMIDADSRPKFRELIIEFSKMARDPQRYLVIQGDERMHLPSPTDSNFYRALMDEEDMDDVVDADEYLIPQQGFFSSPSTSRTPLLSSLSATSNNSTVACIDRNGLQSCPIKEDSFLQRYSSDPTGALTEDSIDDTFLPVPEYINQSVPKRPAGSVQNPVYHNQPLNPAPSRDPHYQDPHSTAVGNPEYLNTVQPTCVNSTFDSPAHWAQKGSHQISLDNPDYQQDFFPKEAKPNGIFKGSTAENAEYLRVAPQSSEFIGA
Procedure: as §1, §2, §3, §4, §5, §6

Ba/F3 EGFR wt. cell line = assay: CellTiter-Glo cell viability, Ba/F3 EGFR wild-type; format: cell-based; conditions: 72 hours
Procedure: The measurement of an activity on wild-type and mutation Ba/F3 EGFR cell line of the compound of the present invention was experimented by utilizing the CellTiter-Glo system sold by Promega, as follow. The CellTiter-Glo assay is a method for measuring the ATP present in cells in cell culture conditions to determine the cell viability.
The analysis of an EGFR inhibitory ability effect of the compound was carried out in accordance with the analysis reaction recipe below.
After the reaction of 72 hours, the plate treated with the compound was allowed to stand for 30 minutes at ambient temperature, and then, was further treated with 100 μl of the reagent, and was shaked for 10 minutes at ambient temperature. […] The measurement values measured at the eight concentrations of the compound were analyzed by using the Prism program (version 5.01, Graphpad Software, Inc.), and IC50 value of the compound was calculated, which is an inhibitory ability indicator.

FLT3(D835H) = FLT3(D835H) (Homo sapiens (Human), UniProt P36888, D835H); assay: KINOMEscan binding, FLT3(D835H)
Procedure: (§7) The inhibitory activity on FLT kinase, such as wild-type FLT1, FLT3, FLT4, and FLT3 mutation forms, FLT3(D835H), FLT3(D835V), FLT3(D835Y), FLT3(ITD), FLT3(ITD,D835V), FLT3(ITD,F691L), FLT3(K663Q), FLT3(N841I), FLT3(R834Q) was measured.
(§8) FLT3 kinase inhibition was carried out by KINOMEscan method (DiscoverX Inc.). KINOMEscan method consists of the following processes. T7 bacteriophage labeled with FLT kinase was cultured by the infection to E. coli derived from BL21. After the infection of E. coli in the condition of 0.4 of MOI (multiplicity of infection), it was cultured for 90 to 150 minutes at 32° C. to lyse E. coli. The cell debris was removed by centrifugation and filtration, and the kinase protein present in the supernatant was secured. Additionally, the kinase protein was labeled with DNA for the qPCR measurement. The magnetic beads labeled with streptavidin were treated with the standard compound labeled with biotin and reacted for 30 minutes. The resulting beads were used as affinity beads for the measurement of a kinase activity. The binding reaction was initiated with mixing a kinase protein, the affinity beads bound with a ligand, and the compound. In this case, the used buffer solution was 20% SeaBlock, 0.17×PBS, 0.05% Tween 20, 6 mM DTT. […] The affinity of the compound to be tested was indirectly measured by Quantifying the eluted kinase by […].

FLT3(D835Y) = FLT3(D835Y) (Homo sapiens (Human), UniProt P36888, D835Y); assay: KINOMEscan binding, FLT3(D835Y)
Procedure: as §7, §8

FLT3(ITD, F691L) = FLT3(ITD, F691L) (Homo sapiens, UniProt P36888, F691L/ITD); assay: KINOMEscan binding, FLT3(ITD, F691L)
Procedure: as §7, §8

FLT3(K663Q) = FLT3(K663Q) (Homo sapiens (Human), UniProt P36888, K663Q); assay: KINOMEscan binding, FLT3(K663Q)
Procedure: as §7, §8

FLT4 = FLT4 (Homo sapiens (Human), UniProt P35916); assay: KINOMEscan binding, FLT4
Chain of FLT4 (P35916 25-1363): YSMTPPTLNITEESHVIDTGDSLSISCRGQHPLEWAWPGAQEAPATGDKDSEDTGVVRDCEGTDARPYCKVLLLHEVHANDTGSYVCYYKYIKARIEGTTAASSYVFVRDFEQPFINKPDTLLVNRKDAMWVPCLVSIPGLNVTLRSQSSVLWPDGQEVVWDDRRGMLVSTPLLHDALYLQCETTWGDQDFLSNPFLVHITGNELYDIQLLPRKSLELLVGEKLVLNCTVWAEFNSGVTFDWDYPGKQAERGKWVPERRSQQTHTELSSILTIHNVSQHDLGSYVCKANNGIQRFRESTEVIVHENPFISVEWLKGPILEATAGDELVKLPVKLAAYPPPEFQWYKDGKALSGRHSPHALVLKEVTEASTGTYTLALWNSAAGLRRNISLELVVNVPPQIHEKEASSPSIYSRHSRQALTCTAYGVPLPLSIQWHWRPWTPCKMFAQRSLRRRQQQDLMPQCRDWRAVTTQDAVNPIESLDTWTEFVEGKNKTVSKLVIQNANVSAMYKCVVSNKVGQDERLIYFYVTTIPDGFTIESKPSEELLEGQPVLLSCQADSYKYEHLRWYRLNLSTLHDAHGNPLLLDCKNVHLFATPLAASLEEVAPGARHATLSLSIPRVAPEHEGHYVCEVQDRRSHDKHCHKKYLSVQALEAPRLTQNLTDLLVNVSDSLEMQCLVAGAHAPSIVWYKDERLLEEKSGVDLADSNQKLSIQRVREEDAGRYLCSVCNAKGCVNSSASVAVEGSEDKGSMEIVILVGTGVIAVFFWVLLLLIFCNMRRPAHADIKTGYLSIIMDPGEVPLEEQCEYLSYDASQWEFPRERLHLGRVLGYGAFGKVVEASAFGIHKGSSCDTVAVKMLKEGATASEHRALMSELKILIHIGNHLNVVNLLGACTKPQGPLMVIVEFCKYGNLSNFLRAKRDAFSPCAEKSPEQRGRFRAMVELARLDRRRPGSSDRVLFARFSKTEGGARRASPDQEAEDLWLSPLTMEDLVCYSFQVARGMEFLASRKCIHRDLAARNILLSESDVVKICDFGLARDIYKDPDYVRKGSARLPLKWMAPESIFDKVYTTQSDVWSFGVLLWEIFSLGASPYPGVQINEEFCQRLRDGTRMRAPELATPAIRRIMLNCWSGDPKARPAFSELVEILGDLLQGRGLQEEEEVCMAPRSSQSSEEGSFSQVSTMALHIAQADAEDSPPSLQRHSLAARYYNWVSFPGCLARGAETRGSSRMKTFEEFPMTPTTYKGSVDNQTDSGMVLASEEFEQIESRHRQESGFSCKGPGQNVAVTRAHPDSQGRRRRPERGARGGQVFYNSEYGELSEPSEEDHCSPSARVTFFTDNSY
Procedure: as §7, §8

[1] = tested on: Ba/F3 Del19/T790M/C797S cell line; assay: Relative cell viability alone or in combination with cetuximab; format: cell-based; conditions: for viability at 0.03 µM: Mus musculus; for cell viability decreased than brigatinib in combination with cetuximab: combination with 10 μg cetuximab vs 30 nM brigatinib plus cetuximab
Excerpt: In order to confirm a cell activity on Ba/F3 Del19/T790M/C797S cell line when administering the compound according to the present invention in combination with a conventional drug, cetuximab to be used in single therapy or combination therapy with anticancer chemotherapy in metastatic colorectal cancer, metastatic squamous epithelium head and neck cancer and the like was used to evaluate the cell activity according to the combination administration.
Specifically, brigatinib was used as a control drug, and each of 30 nM of brigatinib, 30 nM of the compound of Example 10 according to the present invention, and 15 nM of the compound of Example 11 was administered to Ba/F3 Del19/T790M/C797S cell line in combination with 10 μg of cetuximab, which is a monoclonal antibody.

[2] = BaF3, 30 nM Example 10 or 15 nM Example 11 alone vs 10 μg cetuximab alone, read-out: lower cell viability when administered alone than cetuximab
[3] = BaF3, 30 nM Example 10 or 15 nM Example 11 plus 10 μg cetuximab vs alone, read-out: cell viability decreased when administered in combination with cetuximab than when administered alone

Chain of EGFR del19 (P00533 other isoform, or with tags, fused parts or gaps del 1-668/del 746-750 limits assumed): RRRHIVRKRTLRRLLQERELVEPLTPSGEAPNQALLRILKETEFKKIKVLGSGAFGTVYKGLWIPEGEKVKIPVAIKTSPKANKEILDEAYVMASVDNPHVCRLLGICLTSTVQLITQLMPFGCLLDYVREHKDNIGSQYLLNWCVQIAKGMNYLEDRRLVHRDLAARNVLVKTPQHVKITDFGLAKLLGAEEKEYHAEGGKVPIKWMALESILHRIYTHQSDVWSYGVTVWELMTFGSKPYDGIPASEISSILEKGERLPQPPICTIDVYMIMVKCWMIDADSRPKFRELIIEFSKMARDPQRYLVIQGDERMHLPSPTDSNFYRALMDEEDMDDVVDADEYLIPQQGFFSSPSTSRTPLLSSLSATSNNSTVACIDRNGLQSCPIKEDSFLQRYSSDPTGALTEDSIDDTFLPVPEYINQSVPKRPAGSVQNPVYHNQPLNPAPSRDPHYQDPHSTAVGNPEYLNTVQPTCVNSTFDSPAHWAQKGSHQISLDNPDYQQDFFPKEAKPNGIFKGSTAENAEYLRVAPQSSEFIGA

SMILES | IC50 (EGFR del19) [nM] | IC50 (EGFR del19/T790M) [nM] | IC50 (Ba/F3 EGFR wt. cell line) [nM] | Kd (FLT3(D835H)) [nM] | Kd (FLT3(D835Y)) [nM] | Kd (FLT3(ITD, F691L)) [nM] | Kd (FLT3(K663Q)) [nM] | Kd (FLT4) [nM] | viability at 0.03 µM [1, 2] [%] | viability at 0.03 µM [1, 3] [%] | cell viability decreased than brigatinib in combination with cetuximab [1]
COc1cc(N2CCC(N3CCN(C)CC3)CC2)ccc1Nc1ncc(Cl)c(Nc2ccccc2NS(C)(=O)=O)n1 [Example 10, N-(2-((5-chloro-2-((2-methoxy-4-(4-(4-methylpiperazin-1-yl)piperidin-1-yl)phenyl)amino)pyrimidin-4-yl)amino)phenyl)methanesulfonamide] | 0.7 | 4 | 1000 | 38 | 4.2 | 1.1 | 39 | 200 | ≥ 30 | ≥ 50 | at least 20%
COc1cc(N2CCC(N(C)C)CC2)ccc1Nc1ncc(Cl)c(Nc2ccccc2NS(C)(=O)=O)n1 [Example 11, N-(2-((5-chloro-2-((4-(4-(dimethylamino)piperidin-1-yl)-2-methoxyphenyl)amino)pyrimidin-4-yl)amino)phenyl)methanesulfonamide] | 7.8 | 3.1 | 340 | 1.8 | 1.5 | 0.27 | 20 | 81 | ≥ 30 | ≥ 50 | at least 20%
